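Growth conditions: 96-well plates. Treatment: test compound, 48 hours, 5 concentrations. Analysis: linear interpolation between bracketing concentrations; unreached endpoints set to highest concentration. GI50 marks 50% less growth. TGI is the concentration that stops growth completely.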
Tests used:
Test in all cases: inhibition of tumour cell growth, NCI panel, 48 h
[1] = test system: HCC-2998 colon
[2] = test system: SNB-19 CNS
[3] = test system: UACC-62 melanoma
[4] = test system: ACHN renal
[5] = test system: COLO 205 colon
[6] = test system: A498 renal
[7] = test system: UO-31 renal
[8] = test system: MALME-3M melanoma
[9] = test system: HCT-116 colon
[10] = test system: MDA-MB-435

Row | Structure (SMILES) | TGI [1] | TGI [2] | TGI [3] | TGI [4] | TGI [5] | TGI [6] | TGI [7] | TGI [8] | TGI [9] | GI50 [1] | GI50 [2] | GI50 [3] | GI50 [10] | TGI [10] | GI50 [4] | GI50 [5] | GI50 [7] | GI50 [9]
1 | CC(C)(C)c1cc2c(O)c3cccc4c(=O)c5cccc6c5-c(c34)c2c(c1)c6=O | 0.0657 µM | > 100 µM | > 100 µM | > 100 µM | > 100 µM | > 100 µM | > 100 µM | > 100 µM | > 100 µM | – | – | – | – | – | – | – | – | –
2 | Cc1ccc(/C=C/C(=O)CCN(C)C)cc1 | 32.1 µM | > 100 µM | 28.2 µM | 32.9 µM | 29.4 µM | > 100 µM | 33.8 µM | 39.7 µM | 33.1 µM | – | – | – | – | – | – | – | – | –
3 | CCCCCCCCCCCCC(O)c1ccc(C#CCCCCCCCCCO)o1 (stereo not given) | 48.2 µM | 83.1 µM | 40.3 µM | 33.5 µM | > 100 µM | – | 38.5 µM | – | 27.4 µM | 27.5 µM | 31.7 µM | 19.7 µM | 18.9 µM | 34.3 µM | 18.8 µM | > 100 µM | 19.9 µM | 14.4 µM
4 | Oc1[nH]c2ccccc2c1N=Nc1nc(-c2ccc(Br)cc2)cs1 | > 100 µM | 40.7 µM | 63.2 µM | 49.1 µM | 79.1 µM | – | 56.2 µM | – | > 100 µM | – | – | – | – | > 100 µM | – | – | – | –
5 | C/C(=N/Nc1ccc([N+](=O)[O-])cc1[N+](=O)[O-])C(CC(C(=O)NCc1ccccc1)/C(C)=N\Nc1ccc([N+](=O)[O-])cc1[N+](=O)[O-])C(=O)NCc1ccccc1 (stereo not given) | 33.9 µM | 31 µM | 28.4 µM | 17.4 µM | 27.8 µM | 30.5 µM | 14.2 µM | 30.8 µM | 16.4 µM | – | – | – | – | – | – | – | – | –
6 | Cc1cccc(C)c1NC(=O)CCCC(=O)C1/C(=N/NC(=O)CC#N)CCC/C1=N\NC(=O)CC#N (stereo not given) | > 100 µM | > 100 µM | > 100 µM | > 100 µM | > 100 µM | > 100 µM | > 100 µM | > 100 µM | > 100 µM | – | – | – | – | – | – | – | – | –
7 | NC(=O)C(=Cn1c(=S)[nH]c2ccc([N+](=O)[O-])cc21)C(N)=O | > 100 µM | > 100 µM | > 100 µM | > 100 µM | > 100 µM | > 100 µM | > 100 µM | – | > 100 µM | – | – | – | – | > 100 µM | – | – | – | –
8 | COc1ccc(C)cc1-c1cc(Sc2ccccc2)c(-c2cc(C)ccc2OC)o1 | > 31.6 µM | > 31.6 µM | > 31.6 µM | > 31.6 µM | > 31.6 µM | > 31.6 µM | > 31.6 µM | > 31.6 µM | > 31.6 µM | – | – | – | – | – | – | – | – | –
9 | CC(=O)CC(OC(C)=O)C1=CCC2C(CC1C)OC(=O)C2C (stereo not given) | > 100 µM | > 100 µM | > 100 µM | > 100 µM | > 100 µM | > 100 µM | – | > 100 µM | > 100 µM | – | – | – | – | > 100 µM | – | – | – | –
10 | CC(C)=CCC(O)C1=CC(=O)c2c(O)ccc(O)c2C1=O (stereo not given) | 3.68 µM | 7.78 µM | 3.41 µM | 1.86 µM | 0.357 µM | 4.08 µM | 2.93 µM | – | 2.6 µM | – | – | – | – | 2.82 µM | – | – | – | –
11 | COc1nc(NC2OC(COC(C)=O)C(OC(C)=O)C(OC(C)=O)C2OC(C)=O)c2c(OC(C)=O)cc(=O)oc2n1 (stereo not given) | > 100 µM | > 100 µM | > 100 µM | 29.6 µM | > 100 µM | 30.2 µM | > 100 µM | > 100 µM | > 100 µM | – | – | – | – | – | – | – | – | –
